# How the values were obtained:
# [1] = system: H358 lung cancer; type: in vivo; conditions: day 60; 4 mg/kg b.w. oral alternate day; control 2.02±0.3 g
# Experimental: For lung cancer studies, twelve 10-weeks-old mice were divided into two groups of 6 animals (treated with corn oil (vehicle), and COH-SR4 compound 4 mg/kg b.w.). All animals were injected with 2×10^6 H358 cells suspensions in 100 μL of PBS, subcutaneously into one flank of each mouse. At the same time, animals were randomized treatment groups as well as control groups. Treatment was started 10 days after the implantation to see palpable tumor growth. Treatment consisted of 0.1 mg of COH-SR4/m ice in 200 μL corn oil by oral gavage alternate day. Control groups were treated with 200 μL corn oil by oral gavage alternate day. Animals were examined daily for signs of tumor growth. Tumors were measured in two dimensions using calipers. Photographs of animals were taken at day 1, day 10, day 14, day 18, day 30, and day 60 after subcutaneous injection.
# Hsd: Athymic nude nu/nu mice obtained from Harlan, Indianapolis, Ind. were used for the oral administration of COH-SR4 on lung cancer progression in in-vivo xenograft model. Twelve 10-weeks-old mice were divided into two groups of 6 animals (treated with corn oil (vehicle), and COH-SR4 4 mg/kg b.w.). […] Animals were examined daily for signs of tumor growth and body weights were recorded. […] Tumors were measured in two dimensions using calipers. […] The absorption of orally administered COH-SR4 in mice was assessed.
# [2] = system: A375; test: Colony formation assay, A375; type: cell-based, human; conditions: 5 μM
# Experimental: Cell survival was evaluated using a standard colony-forming assay. In total, 1×10^5 cells/mL were incubated with COH-SR4 (1.5 μM or 5 μM) or elesclomol (5 μM) for 24 h, and aliquots of 50 or 100 μL were added to 60 mm size petri dishes, containing 4 mL culture medium. After 7 or 10 days, adherent colonies were fixed, stained with 0.5% methylene blue for 30 min and colonies were counted using the Innotech Alpha Imager HP (91).
# [3] = system: AMPK; test: AMPK activation in 3T3-L1 cells, Western blot; type: cell-based, mouse; conditions: 1 hour
# Experimental: Activation of AMPK was associated with the phosphorylation of the α-subunit on Thr-172 of as assessed using phospho-specific antibodies (FIGS. 10A-B). AMPK activation also leads to the increased phosphorylation of the target protein acetyl-CoA carboxylase (ACC) (FIG. 10B).
# Cells of each cell lines (Hela, HL-60, and 3T3-L1) were treated for 1 hour with a test compound (COH-SR4, COH-SR9, COH-SR16, or COH-SR18) at a concentration of 1 μM, 3 μM, or 5 μM, or AICAR (5-aminoimidazole-4-carboxamideriboside, an AMPK agonist used as positive control) at a concentration of 500 μM, or none of the above (the untreated cells as negative control). Total cell lysates from the untreated cells and the cells treated with a test compound or AICAR were analyzed by Western blot assay using specific antibodies against phospho-AMPK, phospho-ACC, total AMPK and total ACC.
# [4] = system: GST; test: GST activity towards CDNB in melanoma cell supernatants; type: biochemical; conditions: B16-F0, Hs600T, A2058 supernatants; 1 mM GSH and CDNB
# Experimental: GST activity towards 1-chloro 2,4-dinitro benzene (CDNB) and its inhibition by COH-SR4 was performed in 28000×g crude supernatant prepared from B16-F0, Hs600T and A2058 cells. Human liver purified GST was used as a control (inset). The inhibitory effect of COH-SR4 on GST was studied at a fixed concentration of GSH and CDNB (1 mM each) and varying concentrations of inhibitor. The enzymes were pre-incubated with the inhibitor for 5 min at 37° C. prior to the addition of the substrates. […] The ability of COH-SR4 to inhibit GST activity in melanomas represents a potential mechanism that contributes to decreased survival of melanoma cells following COH-SR4 treatment (FIG. 68A).
# [5] = Metabolic effects in HFD obese mice; type: in vivo, mouse
# Experimental: All animal experiments were carried out in accordance with the protocols approved by the Institutional Animal Care and Use Committee of the City of Hope. Nine-week old male C57BL/6J mice fed on high fat diet (HFD, 60% fat) and 10-week old db/db mice were given COH-SR4 (5 mg/kg B.W.) or vehicle (corn oil) via oral gavage every other day for six and five weeks, respectively. Oral glucose tolerance test was performed on animals after an overnight fast. All other metabolic parameters were measured at the end of study. Liver samples were stained with H&E and Oil Red O.
# All data represented are mean±SEM. *P<0.05, **P<0.01 vs. LFD or db/+; ^#P<0.05, ^##P<0.01 vs. HFD or db/db. n=12 animals per group for HFD mice. LFD=low fat diet (lean), HFD=high fat diet (obese). n=8 animals per group for db/db mice.
# Representative mice in each treatment group (LFD, HFD, and HFD treated with COH-SR4 (HFD+SR4)) depicted gross images of whole body shape (top) and abdominal fat (bottom) (FIG. 85A).
# [6] = system: B16-F0; test: MTT assay, B16-F0; type: cell-based; conditions: Mus musculus
# Experimental: Cell density measurements were performed using a hemocytometer to count reproductive cells resistant to staining with trypan blue. Approximately 20,000 cells were plated into each well of 96-well flat-bottomed micro-titer plates. After 12 h or 24 h incubation at 37° C., medium containing either COH-SR4 (ranging 0-200 μM) or elesclomol (ranging 0-20 μM) were added to the cells. After 24 h, 48 h or 96 h incubation, 20 μL of 5 mg/mL MTT were introduced to each well and incubated for 2 h. The plates were centrifuged and medium was decanted. Cells were subsequently dissolved in 100 μl DMSO with gentle shaking for 2 h at room temperature, followed by measurement of OD570 (91).
# Cells of highly aggressive mouse melanoma cell line B16-F0 or human melanoma cell line Hs600T were incubated with various doses of COH-SR4 (1, 2.5, 5, 10, 25, 50, or 100 μM). The cell viabilities after treatment of 48 hours and 96 hours were measured and summarized in FIGS. 54A and 55A, respectively. […] Data were presented as mean±Standard Deviation from two separate determinations with eight replicate each (n=16).
smiles,measurement,setting,value
"O=C(Nc1cc(Cl)cc(Cl)c1)Nc1cc(Cl)cc(Cl)c1 [COH-SR4, 1,3-bis(3,5-dichlorophenyl) urea]",tumor weight,[1],0.77 ± 0.2 g
same,colony formation,[2],42±6%
same,AMPK activation,[3],activated AMPK
same,total GST activity towards CDNB,[4],inhibited the total GST activity to a significant extent
same,body weight,"[5]; 5 mg/kg oral every other day, six weeks",decreased body weight
same,glucose tolerance,[5]; six weeks,improved glucose tolerance
same,"hepatic lipid accumulation (Oil Red O, H&E)",[5]; six weeks,little hepatic lipid accumulation
same,plasma insulin concentration,[5]; six weeks,lower plasma insulin concentration
same,plasma lipids,[5]; six weeks,significantly reduced plasma lipids
same,food intake,[5]; vs control HFD mice,No significant difference in food intake
same,IC50,"[6]; B16F0, 48 h, 48 hours",~14 µM
same,IC50,"[6]; B16F0, 96 h, 96 hours",~5 µM
